Values quoted from earlier work as cited in PMC5014611 (Bioorganic & medicinal chemistry, 2016).

Biological target: T1, human GIVA cPLA2 (Homo sapiens, UniProt P47712)
T1 sequence (P47712 1-749): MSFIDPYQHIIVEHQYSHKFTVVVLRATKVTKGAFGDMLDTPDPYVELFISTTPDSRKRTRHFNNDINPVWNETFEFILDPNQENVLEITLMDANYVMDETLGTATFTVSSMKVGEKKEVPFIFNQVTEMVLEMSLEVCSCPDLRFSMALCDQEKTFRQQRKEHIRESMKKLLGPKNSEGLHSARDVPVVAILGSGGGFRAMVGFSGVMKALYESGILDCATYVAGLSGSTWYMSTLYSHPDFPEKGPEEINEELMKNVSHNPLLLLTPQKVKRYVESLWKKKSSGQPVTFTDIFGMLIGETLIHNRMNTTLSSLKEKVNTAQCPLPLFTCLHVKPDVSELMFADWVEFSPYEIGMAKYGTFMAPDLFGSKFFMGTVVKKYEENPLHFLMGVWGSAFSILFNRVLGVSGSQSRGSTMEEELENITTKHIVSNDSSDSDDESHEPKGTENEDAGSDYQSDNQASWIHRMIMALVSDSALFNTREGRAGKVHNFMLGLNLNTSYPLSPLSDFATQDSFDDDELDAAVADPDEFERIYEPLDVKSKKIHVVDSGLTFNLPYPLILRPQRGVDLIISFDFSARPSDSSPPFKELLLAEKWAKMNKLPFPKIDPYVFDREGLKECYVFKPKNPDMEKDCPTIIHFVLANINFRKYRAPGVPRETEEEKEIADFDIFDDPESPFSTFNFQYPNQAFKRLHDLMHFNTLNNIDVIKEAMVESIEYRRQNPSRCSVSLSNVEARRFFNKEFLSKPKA
Conditions: commercially available inhibitor

In the case of `CCCCC/C=C\C/C=C\C/C=C\C/C=C\CCCC(=O)C(F)(F)F` [AATFMK, arachidonoyl trifluoromethyl ketone], the “GIVA cPLA2 XI(50)” value is given as 0.036 mole fraction.
